Patent publication US8158628B2, “Sulfonylated 1,2,3,4-tetrahydropyrrolo[1,2-a]pyrazine compounds and their use as pharmaceuticals” (Gruenenthal GmbH, priority 2009, dated 2012)

Tests used:
human B1R = target: T1, human B1R (Homo sapiens, UniProt P46663); experiment: FLIPR Ca2+ functional assay, B1R antagonism, human B1R in CHO K1 cells; type: cell-based; conditions: test substance 10 μM; hB1R CHO K1 cells; agonist Lys-Des-Arg9 bradykinin at EC80; % of maximum achievable inhibition
T1 construct: expressed in transfected cells; host or cells: CHO K1 cells (Chinese hamster ovary), stably transfected
T1 sequence (P46663 1-353): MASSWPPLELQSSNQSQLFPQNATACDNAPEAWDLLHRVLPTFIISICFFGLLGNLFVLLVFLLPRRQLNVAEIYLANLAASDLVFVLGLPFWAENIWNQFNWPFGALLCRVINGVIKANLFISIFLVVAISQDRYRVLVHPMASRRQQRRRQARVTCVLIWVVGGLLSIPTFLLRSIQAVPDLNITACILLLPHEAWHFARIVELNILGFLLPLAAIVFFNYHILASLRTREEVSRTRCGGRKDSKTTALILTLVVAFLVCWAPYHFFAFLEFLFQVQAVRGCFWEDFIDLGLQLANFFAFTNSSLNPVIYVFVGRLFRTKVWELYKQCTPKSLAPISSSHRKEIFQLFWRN
How it was run: (§1)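 Stably transfected CHO K1 cells loaded with Fluo-4; Ca2+ fluorescence read on FLIPR (ex 488/em 540 nm). Compound preincubated 10-20 min, then agonist at EC80: Lys-Des-Arg9 bradykinin (human) or Des-Arg9 bradykinin (rat). % inhibition vs maximal inhibition; IC50 from concentration series, n=2-3, N>=2.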

B1R of the rat = target: T2, B1R of the rat (Rattus norvegicus, UniProt P97583); experiment: FLIPR Ca2+ functional assay, B1R antagonism, rat B1R in CHO K1 cells; type: cell-based; conditions: test substance 10 μM; rB1R CHO K1 cells; agonist Des-Arg9 bradykinin at EC80; % of maximum achievable inhibition
T2 construct: expressed in transfected cells; host or cells: CHO K1 cells (Chinese hamster ovary), stably transfected
T2 sequence (P97583 1-337): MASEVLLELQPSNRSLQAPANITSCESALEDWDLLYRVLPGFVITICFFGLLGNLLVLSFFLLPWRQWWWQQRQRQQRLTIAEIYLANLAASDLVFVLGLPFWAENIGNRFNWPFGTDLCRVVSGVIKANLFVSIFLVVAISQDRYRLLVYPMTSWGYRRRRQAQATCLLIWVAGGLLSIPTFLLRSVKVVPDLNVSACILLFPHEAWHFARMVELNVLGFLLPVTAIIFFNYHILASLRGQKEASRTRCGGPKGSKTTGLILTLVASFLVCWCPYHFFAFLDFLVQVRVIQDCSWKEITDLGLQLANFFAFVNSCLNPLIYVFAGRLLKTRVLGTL
How it was run: as §1

COc1cc(C)c(S(=O)(=O)N2CCn3cccc3C2COCC(=O)NC2CCN(c3ccncc3)CC2)c(C)c1 (stereo not drawn) [Example 36, 2-[[2-[(4-Methoxy-2,6-dimethyl-phenyl)sulfonyl]-1,2,3,4-tetrahydro-pyrrolo[1,2-a]pyrazin-1-yl]-methoxy]-N-(1-pyridin-4-yl-piperidin-4-yl)-acetamide]
inhibition at 10 µM (human B1R): 97.5% | inhibition at 10 µM (B1R of the rat): 103%

CCC(C)NCc1ccc2c(c1)CCC(NC(=O)CC1c3cccn3CCN1S(=O)(=O)c1ccc(C)cc1)C2 (stereo not drawn) [Example 62, N-[6-[(1-Methyl-propylamino)-methyl]-1,2,3,4-tetrahydro-naphthalen-2-yl]-2-[2-(p-tolylsulfonyl)-1,2,3,4-tetrahydro-pyrrolo[1,2-a]pyrazin-1-yl]-acetamide]
inhibition at 10 µM (human B1R): 99.2% | inhibition at 10 µM (B1R of the rat): 98.4%

CNCc1ccc2c(c1)CCCC2NC(=O)CC1c2cccn2CCN1S(=O)(=O)c1ccc(C)c(Cl)c1 (stereo not drawn) [Example 136, 2-[2-[(3-Chloro-4-methyl-phenyl)sulfonyl]-1,2,3,4-tetrahydro-pyrrolo[1,2-a]pyrazin-1-yl]-N-[6-(methylamino-methyl)-1,2,3,4-tetrahydro-naphthalen-1-yl]-acetamide]
inhibition at 10 µM (human B1R): 99.7% | inhibition at 10 µM (B1R of the rat): -29.2%

COc1cc(C)c(S(=O)(=O)N2CCn3cccc3C2CC(=O)N2CCC3(CC2)CCN(c2ccncc2)C3)c(C)c1 (stereo not drawn) [Example 18, 2-(2-(4-Methoxy-2,6-dimethylphenylsulfonyl)-1,2,3,4-tetrahydro-pyrrolo[1,2-a]pyrazin-1-yl)-1-(2-(pyridin-4-yl)-2,8-diazaspiro[4.5]decan-8-yl)-ethanone]
inhibition at 10 µM (human B1R): 99.9% | inhibition at 10 µM (B1R of the rat): 94.8%

O=C(CC1c2cccn2CCN1S(=O)(=O)c1cccc(C(F)(F)F)c1)NC1CCc2cc(CN3CCOCC3)ccc2C1 (stereo not drawn) [Example 67, N-[6-(Morpholin-4-yl-methyl)-1,2,3,4-tetrahydro-naphthalen-2-yl]-2-[2-[[3-(trifluoromethyl)phenyl]sulfonyl]-1,2,3,4-tetrahydro-pyrrolo[1,2-a]pyrazin-1-yl]-acetamide]
inhibition at 10 µM (human B1R): 99.7% | inhibition at 10 µM (B1R of the rat): 101%

COc1cc(C)c(S(=O)(=O)N2CCn3cccc3C2COCC(=O)N2CCC(Cc3ccncc3)CC2)c(C)c1 (stereo not drawn) [Example 35, 2-[[2-[(4-Methoxy-2,6-dimethyl-phenyl)sulfonyl]-1,2,3,4-tetrahydro-pyrrolo[1,2-a]pyrazin-1-yl]-methoxy]-1-[4-(pyridin-4-yl-methyl)-piperidin-1-yl]-ethanone]
inhibition at 10 µM (human B1R): 97.7% | inhibition at 10 µM (B1R of the rat): 101%

COc1ccc2cc(S(=O)(=O)N3CCn4cccc4C3CC(=O)NCCc3ccc(C4=NCCN4)cc3)ccc2c1 (stereo not drawn) [Example 41, N-[2-[4-(4,5-Dihydro-1H-imidazol-2-yl)-phenyl]-ethyl]-2-[2-[(6-methoxy-naphthalen-2-yl)sulfonyl]-1,2,3,4-tetrahydro-pyrrolo[1,2-a]pyrazin-1-yl]-acetamide]
inhibition at 10 µM (human B1R): 100% | inhibition at 10 µM (B1R of the rat): 103%

COc1ccc2cc(S(=O)(=O)N3CCn4cccc4C3CC(=O)NC3CCCc4cc(CN(C)C(C)(C)C)ccc43)ccc2c1 (stereo not drawn) [Example 104, N-[6-[(tert-Butyl-methyl-amino)-methyl]-1,2,3,4-tetrahydro-naphthalen-1-yl]-2-[2-[(6-methoxy-naphthalen-2-yl)sulfonyl]-1,2,3,4-tetrahydro-pyrrolo[1,2-a]pyrazin-1-yl]-acetamide]
inhibition at 10 µM (human B1R): 99.9% | inhibition at 10 µM (B1R of the rat): 103%

Cc1ccc(S(=O)(=O)N2CCn3cccc3C2CC(=O)NC2CCCc3cc(CN4CCOCC4)ccc32)cc1 (stereo not drawn) [Example 54, N-[6-(Morpholin-4-yl-methyl)-1,2,3,4-tetrahydro-naphthalen-1-yl]-2-[2-(p-tolylsulfonyl)-1,2,3,4-tetrahydro-pyrrolo[1,2-a]pyrazin-1-yl]-acetamide]
inhibition at 10 µM (human B1R): 99% | inhibition at 10 µM (B1R of the rat): 100%

Cc1ccc(S(=O)(=O)N2CCn3cccc3C2CC(=O)NC2CCc3cc(CN4CCCCC4)ccc3C2)cc1 (stereo not drawn) [Example 29, N-(6-(piperidin-1-ylmethyl)-1,2,3,4-tetrahydronaphthalen-2-yl)-2-(2-tosyl-1,2,3,4-tetrahydropyrrolo[1,2-a]pyrazin-1-yl)acetamide]
inhibition at 10 µM (human B1R): 99.8% | inhibition at 10 µM (B1R of the rat): 102%

Cc1ccc(S(=O)(=O)N2CCn3cccc3C2CC(=O)NC2CCc3cc(CNCc4ccccc4)ccc3C2)cc1Cl (stereo not drawn) [Example 51, N-[6-[(Benzylamino)-methyl]-1,2,3,4-tetrahydro-naphthalen-2-yl]-2-[2-[(3-chloro-4-methyl-phenyl)sulfonyl]-1,2,3,4-tetrahydro-pyrrolo[1,2-a]pyrazin-1-yl]-acetamide]
inhibition at 10 µM (human B1R): 99.5% | inhibition at 10 µM (B1R of the rat): 103%

Cc1ccc(S(=O)(=O)N2CCn3cccc3C2CC(=O)NC2CCc3cc(CN4CCCc5ccccc54)ccc3C2)cc1 (stereo not drawn) [Example 79, 2-[2-(p-Tolylsulfonyl)-1,2,3,4-tetrahydro-pyrrolo[1,2-a]pyrazin-1-yl]-N-[6-(1,2,3,4-tetrahydro-quinolin-1-yl-methyl)-1,2,3,4-tetrahydro-naphthalen-2-yl]-acetamide]
inhibition at 10 µM (human B1R): 57.9% | inhibition at 10 µM (B1R of the rat): 99.3%

Cc1ccc(S(=O)(=O)N2CCn3cccc3C2CC(=O)NC2CCc3cc(CN4CCCC4)ccc3C2)cc1Cl (stereo not drawn) [Example 49, 2-[2-[(3-Chloro-4-methyl-phenyl)sulfonyl]-1,2,3,4-tetrahydro-pyrrolo[1,2-a]pyrazin-1-yl]-N-[6-(pyrrolidin-1-yl-methyl)-1,2,3,4-tetrahydro-naphthalen-2-yl]-acetamide]
inhibition at 10 µM (human B1R): 99.9% | inhibition at 10 µM (B1R of the rat): 100%

COc1ccc2cc(S(=O)(=O)N3CCn4cccc4C3CC(=O)NC3CCc4cc(CN5CCOCC5)ccc4C3)ccc2c1 (stereo not drawn) [Example 118, 2-[2-[(6-Methoxy-naphthalen-2-yl)sulfonyl]-1,2,3,4-tetrahydro-pyrrolo[1,2-a]pyrazin-1-yl]-N-[6-(morpholin-4-yl-methyl)-1,2,3,4-tetrahydro-naphthalen-2-yl]-acetamide]
inhibition at 10 µM (human B1R): 100% | inhibition at 10 µM (B1R of the rat): 102%

COc1ccc2cc(S(=O)(=O)N3CCn4cccc4C3CC(=O)NC3CCc4cc(CN5CCN(C)CC5)ccc4C3)ccc2c1 (stereo not drawn) [Example 99, 2-[2-[(6-Methoxy-naphthalen-2-yl)sulfonyl]-1,2,3,4-tetrahydro-pyrrolo[1,2-a]pyrazin-1-yl]-N-[6-[(4-methyl-piperazin-1-yl)-methyl]-1,2,3,4-tetrahydro-naphthalen-2-yl]-acetamide]
inhibition at 10 µM (human B1R): 99.8% | inhibition at 10 µM (B1R of the rat): 101%

COc1ccc2cc(S(=O)(=O)N3CCn4cccc4C3CC(=O)NC3CCCc4cc(CNCc5ccccc5)ccc43)ccc2c1 (stereo not drawn) [Example 100, N-[6-[(Benzylamino)-methyl]-1,2,3,4-tetrahydro-naphthalen-1-yl]-2-[2-[(6-methoxy-naphthalen-2-yl)sulfonyl]-1,2,3,4-tetrahydro-pyrrolo[1,2-a]pyrazin-1-yl]-acetamide]
inhibition at 10 µM (human B1R): 99.8% | inhibition at 10 µM (B1R of the rat): 103%

COc1cc(C)c(S(=O)(=O)N2CCn3cccc3C2COCC(=O)N(C)CCC2CCN(c3ccncc3)CC2)c(C)c1 (stereo not drawn) [Example 7]
inhibition at 10 µM (human B1R): 99.9% | inhibition at 10 µM (B1R of the rat): 102%

COc1cc(C)c(S(=O)(=O)N2CCn3cccc3C2CC(=O)N2CCC3(CCN(C4CC4)C3)C2)c(C)c1 (stereo not drawn) [Example 3, 1-(7-Cyclopropyl-2,7-diazaspiro[4.4]nonan-2-yl)-2-(2-(4-methoxy-2,6-dimethylphenylsulfonyl)-1,2,3,4-tetrahydropyrrolo[1,2-a]pyrazin-1-yl)ethanone]
inhibition at 10 µM (human B1R): 69.6% | inhibition at 10 µM (B1R of the rat): 58.8%

COc1ccc2cc(S(=O)(=O)N3CCn4cccc4C3CC(=O)NC3CCc4cc(CN(C)C(C)(C)C)ccc4C3)ccc2c1 (stereo not drawn) [Example 97, N-[6-[(tert-Butyl-methyl-amino)-methyl]-1,2,3,4-tetrahydro-naphthalen-2-yl]-2-[2-[(6-methoxy-naphthalen-2-yl)sulfonyl]-1,2,3,4-tetrahydro-pyrrolo[1,2-a]pyrazin-1-yl]-acetamide]
inhibition at 10 µM (human B1R): 99.8% | inhibition at 10 µM (B1R of the rat): 102%

Cc1ccc(S(=O)(=O)N2CCn3cccc3C2CC(=O)NC2CCCc3cc(CN4CCCCC4)ccc32)cc1 (stereo not drawn) [Example 80, N-[6-(Piperidin-1-yl-methyl)-1,2,3,4-tetrahydro-naphthalen-1-yl]-2-[2-(p-tolylsulfonyl)-1,2,3,4-tetrahydro-pyrrolo[1,2-a]pyrazin-1-yl]-acetamide]
inhibition at 10 µM (human B1R): 99.8% | inhibition at 10 µM (B1R of the rat): 101%

Cc1ccc(S(=O)(=O)N2CCn3cccc3C2CC(=O)N[C@@H]2CCCc3cc(CN4CCC(F)CC4)ccc32)cc1 (stereo partly drawn) [Example 44, N-[(1R)-6-[(4-Fluoro-piperidin-1-yl)-methyl]-1,2,3,4-tetrahydro-naphthalen-1-yl]-2-[2-(p-tolylsulfonyl)-1,2,3,4-tetrahydro-pyrrolo[1,2-a]pyrazin-1-yl]-acetamide]
inhibition at 10 µM (human B1R): 99.3% | inhibition at 10 µM (B1R of the rat): 104%
